{"source": "patent US9101638B2", "about": "“Boronic acid derivatives and therapeutic uses thereof” (Rempex Pharmaceuticals, Inc., priority 2013, dated 2015)", "key": {"PAM1032/KPC-2": {"tested_on": "PAM1032/KPC-2", "test": "Biapenem potentiation in PAM1032/KPC-2 (MexAB-OprM overexpressed)", "format": "cell-based, Pseudomonas aeruginosa", "settings": "Pseudomonas aeruginosa", "protocol": "(§1) Efflux of BLIs from Pseudomonas aeruginosa by the MexAB-OprM efflux pump was also evaluated. […] Due to expression of KPC-2 both strains became resistant to biapenem. […] Potency of BLIs to potentiate biapenem in these strains was determined. […] The ratio of MPC64 values for each BLI in PAM1032/KPC-2 (efflux proficient) and PAM1154/KPC-2 (efflux deficient) was determined to generate the Efflux Index (EI)."}, "KP1086 (OXA-48)": {"tested_on": "KP1086 (OXA-48)", "test": "Potentiation of biapenem, strain KP1086", "format": "cell-based", "settings": "strain KP1086 OXA-48, biapenem alone", "protocol": "(§2) Biapenem was present in the test medium at 1 μg/mL. […] Table 3 summarizes the BLI potency of biapenem potentiation (MPC@1) for two strains overexpressing class A (KPC) and class D (OXA-48) carbapenemases. Biapenem MIC for each strain is also shown."}, "KP1004 (KPC-2)": {"tested_on": "KP1004 (KPC-2)", "test": "Potentiation of biapenem, strain KP1004", "format": "cell-based", "settings": "strain KP1004 KPC-2, biapenem alone", "protocol": "as §2"}, "PAM1154/KPC-2": {"tested_on": "PAM1154/KPC-2", "test": "Biapenem potentiation in PAM1154/KPC-2 (MexAB-OprM lacking)", "format": "cell-based, Pseudomonas aeruginosa", "settings": "Pseudomonas aeruginosa", "protocol": "as §1"}, "ec302 (TEM-10)": {"tested_on": "ec302 (TEM-10)", "test": "Potentiation of tigemonam, strain ec302", "format": "cell-based", "settings": "strain ec302 TEM-10, tigemonam alone"}, "KP1009 (CTX-M-15)": {"tested_on": "KP1009 (CTX-M-15)", "test": "Potentiation of tigemonam, strain KP1009", "settings": "strain KP1009 CTX-M-15, tigemonam alone"}, "KP1010 (SHV-12)": {"tested_on": "KP1010 (SHV-12)", "test": "Potentiation of tigemonam, strain KP1010", "settings": "strain KP1010 SHV-12, tigemonam alone"}, "ec308 (SHV-5)": {"tested_on": "ec308 (SHV-5)", "test": "Potentiation of tigemonam, strain ec308", "format": "cell-based", "settings": "strain ec308 SHV-5, tigemonam alone"}, "EC1010 (CMY-6)": {"tested_on": "EC1010 (CMY-6)", "format": "cell-based", "settings": "strain EC1010 CMY-6, tigemonam alone"}, "CathepsinA": {"biological_target": "T1, CathepsinA (Homo sapiens, UniProt P10619)", "T1 construct": "purchased R&D Systems 1049-SE", "T1 sequence (P10619 29-480)": "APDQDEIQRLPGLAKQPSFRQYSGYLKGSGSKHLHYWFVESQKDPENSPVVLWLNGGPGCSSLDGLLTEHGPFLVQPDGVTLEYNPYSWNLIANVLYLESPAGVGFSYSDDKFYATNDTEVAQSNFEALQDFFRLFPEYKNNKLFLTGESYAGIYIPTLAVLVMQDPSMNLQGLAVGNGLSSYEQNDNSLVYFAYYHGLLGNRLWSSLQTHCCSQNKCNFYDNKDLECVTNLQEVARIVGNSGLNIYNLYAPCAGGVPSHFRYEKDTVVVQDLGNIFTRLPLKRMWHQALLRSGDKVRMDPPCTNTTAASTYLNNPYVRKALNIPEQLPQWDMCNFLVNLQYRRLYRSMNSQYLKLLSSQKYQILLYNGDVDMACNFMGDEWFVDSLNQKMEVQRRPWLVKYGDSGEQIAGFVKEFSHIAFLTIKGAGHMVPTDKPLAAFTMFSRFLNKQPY", "test": "Serine protease inhibition: cathepsin A", "format": "biochemical, mammalian", "protocol": "(§3) The effect of selected BLIs on the enzymatic activity of some common mammalian serine proteases was evaluated.\n(§4) 50 μl of the diluted enzyme was mixed with 50 μl of inhibitor at various concentrations and 50 μl of corresponding buffer (Table 7). Reaction mixtures were incubated for 10 min at 37° C. Subsequently, 50 μl of corresponding substrate (Table 7) was added and absorbance or fluorescence was monitored for 30 min on SpectraMax M2 plate reader (Molecular Devices). 4-(2-Aminoethyl)benzenesulfonyl fluoride hydrochloride (AEBSF) and leupeptin were used as positive controls. Rates of reaction were calculated and presented relative to “no treatment” control."}, "[1]": {"biological_target": "T2, Dipeptidyl peptidase 9 (DPP9) (Homo sapiens, UniProt Q86TI2)", "T2 construct": "purchased BPS Bioscience 80090", "T2 sequence (Q86TI2 whole entry)": "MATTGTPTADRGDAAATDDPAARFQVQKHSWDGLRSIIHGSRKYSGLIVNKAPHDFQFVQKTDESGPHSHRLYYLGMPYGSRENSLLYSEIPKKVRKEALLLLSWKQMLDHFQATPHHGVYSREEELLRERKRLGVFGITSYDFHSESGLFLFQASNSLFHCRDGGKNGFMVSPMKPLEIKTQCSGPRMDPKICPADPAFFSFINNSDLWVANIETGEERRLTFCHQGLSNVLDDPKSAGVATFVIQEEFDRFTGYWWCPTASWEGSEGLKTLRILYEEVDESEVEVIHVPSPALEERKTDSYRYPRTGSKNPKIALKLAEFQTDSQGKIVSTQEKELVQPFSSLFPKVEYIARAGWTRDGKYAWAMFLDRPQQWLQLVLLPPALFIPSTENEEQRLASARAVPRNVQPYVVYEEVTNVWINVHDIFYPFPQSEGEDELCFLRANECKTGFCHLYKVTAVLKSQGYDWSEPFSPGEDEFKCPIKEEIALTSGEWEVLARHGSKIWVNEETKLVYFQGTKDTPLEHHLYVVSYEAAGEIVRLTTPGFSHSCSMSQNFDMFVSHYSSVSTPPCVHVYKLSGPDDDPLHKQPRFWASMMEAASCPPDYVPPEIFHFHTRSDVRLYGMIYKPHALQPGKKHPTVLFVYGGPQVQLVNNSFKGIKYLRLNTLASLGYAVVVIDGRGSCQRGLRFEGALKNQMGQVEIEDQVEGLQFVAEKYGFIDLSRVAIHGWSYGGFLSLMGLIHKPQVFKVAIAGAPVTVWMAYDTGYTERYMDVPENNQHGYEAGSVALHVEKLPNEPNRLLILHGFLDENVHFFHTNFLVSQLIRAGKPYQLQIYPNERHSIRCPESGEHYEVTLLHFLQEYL", "test": "Serine protease inhibition: DPP9", "format": "biochemical, mammalian", "protocol": "as §3, §4"}, "Chymase": {"biological_target": "T3, Chymase (Homo sapiens, UniProt P23946)", "T3 construct": "purchased Enzo Lifescience BML-SE281", "T3 sequence (P23946 22-247)": "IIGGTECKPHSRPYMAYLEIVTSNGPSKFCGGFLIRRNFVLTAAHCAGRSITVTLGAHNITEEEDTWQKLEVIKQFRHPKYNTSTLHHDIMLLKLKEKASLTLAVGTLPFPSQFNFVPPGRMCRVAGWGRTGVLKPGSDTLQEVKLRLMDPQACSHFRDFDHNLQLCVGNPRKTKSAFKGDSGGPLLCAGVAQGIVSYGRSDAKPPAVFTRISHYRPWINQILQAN", "test": "Serine protease inhibition: chymase", "format": "biochemical, mammalian", "settings": "Table 8A, positive controls, numeric; read-out: IC50 Chymase", "protocol": "as §3, §4"}, "Neutrophil elastase": {"biological_target": "T4, Neutrophil elastase (Homo sapiens, UniProt P08246)", "T4 construct": "purchased Calbiochem 324681", "T4 sequence (P08246 30-267)": "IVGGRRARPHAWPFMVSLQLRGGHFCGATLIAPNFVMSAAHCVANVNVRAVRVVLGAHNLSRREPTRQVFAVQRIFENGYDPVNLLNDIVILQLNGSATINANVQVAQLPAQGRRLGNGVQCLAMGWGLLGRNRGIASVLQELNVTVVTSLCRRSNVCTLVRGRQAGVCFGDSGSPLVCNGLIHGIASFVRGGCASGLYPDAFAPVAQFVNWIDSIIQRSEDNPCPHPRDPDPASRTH", "test": "Serine protease inhibition: neutrophil elastase", "format": "biochemical, mammalian", "settings": "Table 8B; read-out: IC50 Neutrophil elastase", "protocol": "as §3, §4"}, "HtrA2": {"biological_target": "T5, HtrA2 (Homo sapiens, UniProt O43464)", "T5 sequence (O43464 134-458)": "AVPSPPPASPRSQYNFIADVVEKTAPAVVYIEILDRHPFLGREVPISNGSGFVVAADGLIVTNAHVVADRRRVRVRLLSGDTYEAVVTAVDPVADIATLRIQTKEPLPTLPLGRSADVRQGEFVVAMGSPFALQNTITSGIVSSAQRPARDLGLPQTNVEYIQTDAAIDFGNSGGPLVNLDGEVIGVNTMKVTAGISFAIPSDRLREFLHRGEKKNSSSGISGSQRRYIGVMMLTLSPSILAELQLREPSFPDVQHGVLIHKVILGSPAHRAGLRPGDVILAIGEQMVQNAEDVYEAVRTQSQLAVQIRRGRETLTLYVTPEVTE", "test": "Serine protease inhibition: HtrA2", "format": "biochemical, mammalian", "protocol": "as §3, §4"}, "[2]": {"biological_target": "T6, Dipeptidyl peptidase 8 (DPP8) (Homo sapiens, UniProt Q6V1X1)", "T6 construct": "purchased BPS Bioscience 80080", "T6 sequence (Q6V1X1 whole entry)": "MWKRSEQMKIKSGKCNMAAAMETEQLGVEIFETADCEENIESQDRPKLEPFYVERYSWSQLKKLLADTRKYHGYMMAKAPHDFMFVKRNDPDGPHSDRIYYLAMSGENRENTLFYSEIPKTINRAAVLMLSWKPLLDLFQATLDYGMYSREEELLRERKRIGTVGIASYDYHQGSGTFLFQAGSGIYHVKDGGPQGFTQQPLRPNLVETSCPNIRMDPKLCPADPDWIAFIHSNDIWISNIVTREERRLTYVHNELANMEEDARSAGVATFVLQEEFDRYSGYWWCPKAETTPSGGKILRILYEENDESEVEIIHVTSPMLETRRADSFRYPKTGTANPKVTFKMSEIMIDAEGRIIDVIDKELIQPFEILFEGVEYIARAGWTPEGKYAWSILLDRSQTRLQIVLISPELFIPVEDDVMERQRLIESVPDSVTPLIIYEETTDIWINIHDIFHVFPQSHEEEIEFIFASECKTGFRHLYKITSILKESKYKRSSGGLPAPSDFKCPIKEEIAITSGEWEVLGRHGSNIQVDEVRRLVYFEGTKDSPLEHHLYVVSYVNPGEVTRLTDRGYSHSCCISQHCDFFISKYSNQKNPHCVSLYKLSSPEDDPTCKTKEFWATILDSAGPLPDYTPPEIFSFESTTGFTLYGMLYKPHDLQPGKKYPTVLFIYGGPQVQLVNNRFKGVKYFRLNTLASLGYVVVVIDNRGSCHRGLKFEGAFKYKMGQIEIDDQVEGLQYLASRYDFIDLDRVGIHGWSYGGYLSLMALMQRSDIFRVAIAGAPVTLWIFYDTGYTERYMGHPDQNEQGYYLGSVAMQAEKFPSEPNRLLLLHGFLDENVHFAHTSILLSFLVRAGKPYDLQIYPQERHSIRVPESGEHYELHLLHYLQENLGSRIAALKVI", "test": "Serine protease inhibition: DPP8", "format": "biochemical, mammalian", "protocol": "as §3, §4"}, "Elastase": {"biological_target": "T7, Elastase (Sus scrofa, UniProt P00772)", "T7 construct": "purchased Calbiochem 324682", "T7 sequence (P00772 27-266)": "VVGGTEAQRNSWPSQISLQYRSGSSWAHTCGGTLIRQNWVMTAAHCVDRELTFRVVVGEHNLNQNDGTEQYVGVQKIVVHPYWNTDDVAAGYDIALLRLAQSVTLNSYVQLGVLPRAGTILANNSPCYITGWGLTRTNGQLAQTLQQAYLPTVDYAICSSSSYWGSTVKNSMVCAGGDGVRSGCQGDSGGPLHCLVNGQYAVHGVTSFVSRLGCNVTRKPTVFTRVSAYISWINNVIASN", "test": "Serine protease inhibition: elastase", "format": "biochemical, mammalian", "protocol": "as §3, §4"}, "Thrombin": {"biological_target": "T8, Thrombin (Homo sapiens, UniProt P00734)", "T8 construct": "Thrombin; MPBio; 19491880; purchased MPBio 19491880", "test": "Serine protease inhibition: thrombin", "format": "biochemical, mammalian", "settings": "Table 8A, positive controls, numeric; read-out: IC50 Thrombin", "protocol": "as §3, §4"}, "Chymotrypsin": {"biological_target": "T9, Chymotrypsin (Bos taurus, UniProt P00766)", "T9 construct": "purchased Calbiochem 230832", "test": "Serine protease inhibition: chymotrypsin", "format": "biochemical, mammalian", "protocol": "as §3, §4"}, "Trypsin": {"biological_target": "T10, Trypsin (Bos taurus, UniProt P00760)", "T10 construct": "purchased Calbiochem 6502", "T10 sequence (P00760 24-246)": "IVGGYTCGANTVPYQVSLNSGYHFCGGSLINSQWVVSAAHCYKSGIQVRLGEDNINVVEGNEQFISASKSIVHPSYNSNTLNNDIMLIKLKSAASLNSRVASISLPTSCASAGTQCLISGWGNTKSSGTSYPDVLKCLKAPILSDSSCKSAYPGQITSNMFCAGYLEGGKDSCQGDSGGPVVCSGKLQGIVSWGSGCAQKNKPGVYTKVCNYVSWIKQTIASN", "test": "Serine protease inhibition: trypsin", "format": "biochemical, mammalian", "protocol": "as §3, §4"}, "[3]": {"biological_target": "T11, Dipeptidyl peptidase 7 (DPP7) (Homo sapiens, UniProt Q9UHL4)", "T11 construct": "purchased R&D Systems 3438-SE", "test": "Serine protease inhibition: DPP7", "format": "biochemical, mammalian", "protocol": "as §3, §4"}, "Plasmin": {"biological_target": "T12, Plasmin (Homo sapiens, UniProt P00747)", "T12 construct": "Plasmin; MPBio; 19419890; purchased MPBio 19419890", "T12 sequence (P00747 581-810 limits assumed, species assumed)": "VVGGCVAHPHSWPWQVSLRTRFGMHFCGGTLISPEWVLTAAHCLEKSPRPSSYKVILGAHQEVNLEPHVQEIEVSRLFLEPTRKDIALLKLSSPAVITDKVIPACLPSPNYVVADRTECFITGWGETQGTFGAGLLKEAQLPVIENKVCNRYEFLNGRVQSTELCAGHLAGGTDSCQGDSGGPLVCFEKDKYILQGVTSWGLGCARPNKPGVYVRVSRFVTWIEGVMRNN", "T12 sequence (P00747 97-580 partner limits assumed, species assumed)": "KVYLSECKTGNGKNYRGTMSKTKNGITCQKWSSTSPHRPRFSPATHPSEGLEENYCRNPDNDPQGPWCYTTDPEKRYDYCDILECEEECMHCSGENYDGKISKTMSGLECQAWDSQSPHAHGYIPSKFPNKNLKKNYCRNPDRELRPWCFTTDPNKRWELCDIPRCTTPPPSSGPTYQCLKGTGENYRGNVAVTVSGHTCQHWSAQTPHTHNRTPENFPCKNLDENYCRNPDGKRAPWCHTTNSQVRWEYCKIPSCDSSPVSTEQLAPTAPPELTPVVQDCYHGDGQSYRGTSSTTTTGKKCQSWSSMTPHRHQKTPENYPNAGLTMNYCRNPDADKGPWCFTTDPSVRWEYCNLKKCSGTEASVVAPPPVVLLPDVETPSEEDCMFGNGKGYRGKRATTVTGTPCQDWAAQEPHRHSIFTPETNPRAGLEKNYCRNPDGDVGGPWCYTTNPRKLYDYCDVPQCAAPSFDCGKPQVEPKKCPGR", "test": "Serine protease inhibition: plasmin", "format": "biochemical, mammalian", "protocol": "as §3, §4"}, "Urokinase": {"biological_target": "T13, Urokinase (Homo sapiens, UniProt P00749)", "T13 construct": "purchased Calbiochem 672112", "test": "Serine protease inhibition: urokinase", "format": "biochemical, mammalian", "settings": "Table 8A, positive controls, numeric; read-out: IC50 Urokinase", "protocol": "as §3, §4"}}}
{"smiles": "C[C@@H](O)[C@H]1C(=O)N2C(C(=O)[O-])=C(SC3Cn4cnc[n+]4C3)[C@H](C)[C@H]12", "note": "(some centres unmarked) [Biapenem, reference compound]", "values": [{"measurement": "MIC", "setting": "PAM1032/KPC-2", "result": 32, "unit": "µg/mL"}, {"measurement": "MIC", "setting": "KP1086 (OXA-48)", "result": 16, "unit": "µg/mL"}, {"measurement": "MIC", "setting": "KP1004 (KPC-2)", "result": 32, "unit": "µg/mL"}, {"measurement": "MIC", "setting": "PAM1154/KPC-2", "result": 32, "unit": "µg/mL"}]}
{"smiles": "CC1(C)[C@H](NC(=O)/C(=N\\OCC(=O)O)c2csc(N)n2)C(=O)N1OS(=O)(=O)O", "note": "[Tigemonam, reference compound]", "values": [{"measurement": "Tigemonam MIC", "setting": "ec302 (TEM-10)", "result": ">64", "unit": "µg/mL"}, {"measurement": "Tigemonam MIC", "setting": "KP1009 (CTX-M-15)", "result": ">64", "unit": "µg/mL"}, {"measurement": "Tigemonam MIC", "setting": "KP1010 (SHV-12)", "result": ">64", "unit": "µg/mL"}, {"measurement": "Tigemonam MIC", "setting": "ec308 (SHV-5)", "result": ">64", "unit": "µg/mL"}, {"measurement": "Tigemonam MIC", "setting": "KP1005 (CTX-M-14)", "result": ">64", "unit": "µg/mL"}, {"measurement": "Tigemonam MIC", "setting": "EC1010 (CMY-6)", "result": 16, "unit": "µg/mL"}]}
{"smiles": "CC(=O)N[C@@H](CC(C)C)C(=O)N[C@@H](CC(C)C)C(=O)N[C@H](C=O)CCCNC(=N)N", "note": "[Leupeptin, leupeptin, reference compound]", "values": [{"measurement": "IC50", "setting": "CathepsinA", "result": "15 to 500", "unit": "µM"}, {"measurement": "IC50", "setting": "[1]", "result": "15 to 500", "unit": "µM"}, {"measurement": "IC50", "setting": "Chymase", "result": "> 200", "unit": "µM"}, {"measurement": "IC50", "setting": "Neutrophil elastase", "result": "15 to 500", "unit": "µM"}, {"measurement": "IC50", "setting": "HtrA2", "result": "> 500", "unit": "µM"}, {"measurement": "IC50", "setting": "[2]", "result": "15 to 500", "unit": "µM"}, {"measurement": "IC50", "setting": "Elastase", "result": "> 200", "unit": "µM"}, {"measurement": "IC50", "setting": "Thrombin", "result": 15, "unit": "µM"}, {"measurement": "IC50", "setting": "Chymotrypsin", "result": "> 200", "unit": "µM"}, {"measurement": "IC50", "setting": "Trypsin", "result": "< 0.27", "unit": "µM"}, {"measurement": "IC50", "setting": "[3]", "result": "15 to 500", "unit": "µM"}, {"measurement": "IC50", "setting": "Plasmin", "result": 5, "unit": "µM"}, {"measurement": "IC50", "setting": "Urokinase", "result": 22, "unit": "µM"}]}
